From PMC4397963, “Phospho-Tyrosine(s) vs. Phosphatidylinositol Binding in Shc Mediated Integrin Signaling” (American journal of molecular biology, 2015)
“Also recorded” adds a separate entry of the source.

Experiments:
[1] = target: T1, Shc PTB domain (17 – 207) (Homo sapiens, UniProt P29353); assay: ITC binding to Shc PTB domain; conditions: for thermodynamic character of binding (heat sign, driving force) / Kd / ΔG / ΔH / −TΔS: ITC, 25°C; for Kd / ΔG / ΔH / −TΔS: PtdIns binding to PTB domain; for Kd: 50 mM Tris pH 7.5, 100 mM NaCl, 5 mM β-mercaptoethanol, "independent" model, dihexanoyl- or dioctonoyl- PtdIns, read-out: Kd; for ΔG / ΔH / −TΔS: pH 7.5
T1 construct: The Shc PTB domain (17 – 207) containing the pET15b vector was transformed into a Rosetta (DE3) cell line; His-tag (N); made in house; host or cells: E. coli Rosetta (DE3), pET15b
T1 sequence (P29353 17-207 isoform P29353-2): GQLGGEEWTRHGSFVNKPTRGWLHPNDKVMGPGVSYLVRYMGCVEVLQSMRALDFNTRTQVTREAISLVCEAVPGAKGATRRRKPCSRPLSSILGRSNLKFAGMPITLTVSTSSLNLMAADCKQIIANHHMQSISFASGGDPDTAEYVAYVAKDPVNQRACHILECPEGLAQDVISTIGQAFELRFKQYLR
Protocol: The Shc PTB domain (17 – 207) containing the pET15b vector was transformed into a Rosetta (DE3) cell line to pursue optimal expression levels. SH2 domain (380 – 473) was cloned into NdeI and XhoI sites in pET21b vector and then transformed into a BL21 (DE3) cell line. The vector of pET28a-full length Shc (1 – 473), generously provided by Dr. Ladbury (University of Texas MD Anderson Cancer Center, TX), was expressed in a BL21 (DE3) cell line as well. Typically, 10 ml overnight culture was used to inoculate 1 liter LB broth. Cells were grown at 37°C until OD600 reached 0.6. At this point the culture was cooled to room temperature and then the overnight overexpression was induced by 1 mM isopropyl-β-D-thiogalactopyranoside. Harvested cells were kept at −20°C for future purification or resuspended in lysis buffer supplemented with protease inhibitors. Cells were further lysed by french press and the cell debris was removed by centrifugation at 18,000 rpm at 4°C. […] The overexpression of the target protein and the purified protein were confirmed by SDS-PAGE and the bands of the expected mass were observed. The determination of protein concentration by UV measurement was consistent with Bradford assay.
Calorimetric measurements of a full length Shc, PTB domain, and SH2 domain to β3 phosphopeptides or PtdIns were performed on a low volume Nano ITC (TA Instruments). All experiments were carried out in a buffer of 50 mM Tris, pH 7.5, 100 mM NaCl, 5 mM β-mercaptoethanol (unless described otherwise) at 12°C or 25°C with a stirring speed of 250 rpm to minimize the precipitation of the protein. 300 second time intervals were set between injections. The concentration of protein samples was determined by UV measurements. The titrants (β3 phosphopeptides or PtdIns) were prepared in the same buffer by the dilution of higher concentration stocks. The concentrations of the protein ranged from 30 μM to 150 μM. The concentration of protein was examined after each ITC experiment by UV to ensure the stability of proteins under the test condition. The analysis of the data was done with Nano Analyze Software (TA Instruments) suite using an “independent” model.

apo PTB domain of Shc = conditions: unilamellar liposomes centrifugation assay; ref [15]; read-out: binding affinity, apo PTB domain; cited from earlier work
Shc PTB domain = conditions: ref [15]; cited from earlier work
Text: Since their discovery about two decades ago, PTB domains have been identified and structurally characterized within numerous multi-domain proteins. The ways they interact with their targets are strikingly versatile. The phosphorylated tyrosine is not always required for the high affinity interactions, and, in some cases, the binding motif might not even contain the tyrosine residue at all. PTB domains in general are also famous for the significant variance in their ligand binding affinities, ranging from 0.1 to 100 μM [17].

[2] = target: PTB domain complexed with TrkA peptide; conditions: roughly estimated; ref [15]; cited from earlier work
apo Shc PTB domain = assay: 15N-HSQC NMR titration of apo Shc PTB domain; assay type: binding; conditions: 15N-labelled apo PTB 100 – 200 μM, 50 mM Tris pH 7.5, 100 mM NaCl, 35°C; lipid to protein up to 15 to 1 (Ins(1,4,5)P3), 5 to 1 (PtdIns(4,5)P2)
Protocol: ^15N-labelled recombinant proteins were overexpressed in M9 medium supplemented with ^15NH4Cl as the sole nitrogen source. The same purification procedures as described above were followed. NMR samples of 100 – 200 μM were prepared in a buffer of 50 mM Tris, pH 7.5, 100 mM NaCl, 5 mM β-mercaptoethanol, 7% D2O, 1 mM 4,4-dimethyl-4-silapentane-1-sulfonic acid as the internal standard. ^15N-HSQC titration experiments were performed on a Varian/Agilent Inova 600 MHz spectrometer equipped with inverse-triple resonance cryo-probe at 35°C. All spectra were processed with NMRPipe and analyzed in CCPNmr Analysis software suite.
To find out the molecular details of these weak Shc-PtdIns interactions, we next employed NMR and performed ^15N-HSQC chemical shifts mapping experiments which are especially useful to define weak binding. […] Chemical shift perturbations, associated with the probes binding, were monitored. Overall, the observed shifts in Shc PTB resonance frequencies were small. However, they were concentration dependent, reproducible, and similar among the two PtdIns tested. […] The close-ups of 15N-HSQC spectra of PTB in the presence of PtdIns(4,5)P2, exemplifying the most shifted resonances, are shown in Figure 2. […] The first one, represented by the residues Q^148, S^149 and A^168, overlaps with the classical phosphotyrosine binding pocket of the protein-peptide binary complex. However, the canonical PTB fold cannot be formed without the stabilizing hydrophobic residue (pY-5) of the target peptide. Thus, in apo PTB domain Ins(1,4,5)P3 could only establish intermediate dynamic contacts with the amine functional groups of R^67 or Q^148 side chains. The second binding site, including the residues L^63, Q^76 and S^107, is formed at the interface of the second helix, the loop connecting the first beta strand with the second helix and the beginning of the second beta strand. This second PtdIns binding site is distinct from the second novel phosphotyrosine binding site we previously described for Shc PTB-bi-β3 complex, although it includes several overlapping residues. […]

[3] = target: TrkA phosphopeptide (Homo sapiens) (UniProt P04629); assay: ITC; conditions: cited from earlier work
Chain of TrkA phosphopeptide (Homo sapiens) (P04629 33-796): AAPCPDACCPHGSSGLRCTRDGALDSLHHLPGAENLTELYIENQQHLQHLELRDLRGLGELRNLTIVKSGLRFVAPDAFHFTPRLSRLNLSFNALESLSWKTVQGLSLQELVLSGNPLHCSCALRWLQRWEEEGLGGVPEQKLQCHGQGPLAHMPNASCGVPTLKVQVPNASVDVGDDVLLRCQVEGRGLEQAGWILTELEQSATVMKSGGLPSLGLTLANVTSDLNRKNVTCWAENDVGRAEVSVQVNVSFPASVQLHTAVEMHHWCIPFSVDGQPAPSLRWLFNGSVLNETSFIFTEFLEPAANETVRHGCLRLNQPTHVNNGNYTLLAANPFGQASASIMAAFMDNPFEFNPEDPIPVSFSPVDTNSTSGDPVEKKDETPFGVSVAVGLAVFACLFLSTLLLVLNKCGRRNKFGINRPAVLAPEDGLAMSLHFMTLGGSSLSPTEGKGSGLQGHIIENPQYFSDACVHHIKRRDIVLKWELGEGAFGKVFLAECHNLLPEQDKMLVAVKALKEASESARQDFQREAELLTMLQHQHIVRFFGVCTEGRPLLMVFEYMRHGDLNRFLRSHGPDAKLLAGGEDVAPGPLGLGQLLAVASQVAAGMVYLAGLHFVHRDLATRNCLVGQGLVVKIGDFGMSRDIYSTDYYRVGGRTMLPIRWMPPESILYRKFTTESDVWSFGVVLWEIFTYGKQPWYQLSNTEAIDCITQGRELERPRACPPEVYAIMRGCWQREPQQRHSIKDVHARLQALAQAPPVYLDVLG

[4] = target: TrkA phosphopeptide (Homo sapiens) (UniProt P04629); assay: SPR; conditions: cited from earlier work

Chain of Shc PTB (P29353 156-339): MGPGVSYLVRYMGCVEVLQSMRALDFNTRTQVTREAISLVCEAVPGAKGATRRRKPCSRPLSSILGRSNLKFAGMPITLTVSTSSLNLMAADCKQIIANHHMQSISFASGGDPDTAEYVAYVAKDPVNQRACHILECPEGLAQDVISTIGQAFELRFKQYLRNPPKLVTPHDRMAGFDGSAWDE

| binding affinity relative to that reported before ([1]; PTB domain, ITC 25°C vs. centrifugation assay of ref 15) | Kd [1] | ΔG [1] | ΔH [1] | −TΔS [1] | Compound | thermodynamic character of binding (heat sign, driving force) ([1]; PTB domain) | Kd (apo PTB domain of Shc) | lipid specificity (Shc PTB domain) | Kd [2] | 15N-HSQC chemical shift perturbations (apo Shc PTB domain) | Kd [3] | Kd [4] |
| --- | --- | --- | --- | --- | --- | --- | --- | --- | --- | --- | --- | --- |
| about two times weaker | 95 µM | -5.485 kcal/mol | 0.361 kcal/mol | -5.846 kcal/mol | Phosphatidylinositol-4-phosphate [PtdIns(4)P1] | endothermic interactions at 25 °C that are driven predominantly by entropy | 52 µM | higher specificities | ~450 µM | small |  |  |
|  | 125 µM | -5.323 kcal/mol | 0.464 kcal/mol | -5.786 kcal/mol | CCCCCCCCCCCCCCCC(=O)OC[C@H](COP(=O)(O)O[C@H]1[C@H](O)[C@@H](O)[C@H](OP(=O)(O)O)[C@@H](OP(=O)(O)O)[C@H]1O)OC(=O)CCCCCCCCCCCCCCC [PtdIns(4,5)P2, Phosphatidylinositol-4,5-diphosphate] | endothermic interactions at 25 °C that are driven predominantly by entropy | 140 µM | higher specificities | ~450 µM | small; also recorded: more pronounced; also recorded: three major binding regions |  |  |
|  |  |  |  |  | Shc PTB (from UniProt P29353) |  |  |  |  |  | 0.19 µM | 0.053 µM |
